# Results reported in US20040096498A1, “Oral pharmaceutical delivery system with improved sustained release” (priority 2002, published 2004).
# Assay: Single oral dose pharmacokinetic study in dogs, varying the testosterone dose (Example 1)
# Assay type: in vivo, dogs (female beagles)
# Settings: for Average Serum Testosterone / concentration at 0.5 h / concentration at 1 h / concentration at 2 h / concentration at 4 h / concentration at 5 h / concentration at 6 h / concentration at 8 h / concentration at 24 h: single oral; for Average Serum Testosterone: time 0 h (pre-dose); for Sustained release time, Lipid Suspension Time: time serum levels fell between about 300 and 1100 ng/dl; for concentration at 0.5 h / concentration at 1 h / concentration at 2 h / concentration at 4 h / concentration at 5 h / concentration at 6 h / concentration at 8 h / concentration at 24 h: female, beagle, dog, serum
# Procedure: A study using six dogs (female beagles) was made to obtain preliminary pharmacokinetic data following a single oral dose of the delivery system. The dogs were 13-24 months old, and weighed in the range of 10.4 to 13.2 kg.
# The dosing was done in four sequential one day intervals with a minimum two day rest period in between each interval. Blood was drawn immediately before the dose was administered. […] The animals were given the placebo or test article, as described above, at approximately the same time each day, immediately prior to being fed. The dog ate its food within 30 minutes of the dose being administered.
# Blood samples were collected pre-dose and at 0.5, 1, 2, 4, 5, 6, 8 and 24 hours post dosing. At each time point, a minimum of 3 mL whole blood (or minimum volume determined by assay requirement) were collected by venipuncture of the jugular vein into non-heparinized Vacutainer tubes. The blood was centrifuged to obtain serum, which was kept on ice until placed into an appropriately sized vial, and frozen at −70° C. The samples remained frozen until delivered on dry ice to the lab for analysis. The lab used radioimmunoassay to analyse for testosterone.
# Determining the sustained release properties of the samples in Example 1 by evaluating the amount of time the blood serum levels fell between about 300 and 1100 ng/dl, the sustained release times for Example 1 are given in Table 3. It is desirable to have release properties that are fairly constant with time. It is undesirable to have sharp peaks or drops in serum concentration of the drug.
compound,measurement,setting,value
"C[C@]12CC[C@H]3[C@@H](CCC4=CC(=O)CC[C@@]43C)[C@@H]1CC[C@@H]2O [Testosterone, testosterone]",Average Serum Testosterone,dose 25 mg,0 ng/dL
same,"Sustained release time, Lipid Suspension Time",dose 25 mg,1 h
same,Average Serum Testosterone,dose 50 mg,1 ng/dL
same,"Sustained release time, Lipid Suspension Time",dose 50 mg,0 h
same,Average Serum Testosterone,dose 100 mg,0 ng/dL
same,"Sustained release time, Lipid Suspension Time",dose 100 mg,7 h
same,Average Serum Testosterone,dose 250 mg,26 ng/dL
same,"Sustained release time, Lipid Suspension Time",dose 250 mg,7 h
same,concentration at 0.5 h,dose 25 mg,2.86 ng/mL
same,concentration at 1 h,dose 25 mg,3.9 ng/mL
same,concentration at 2 h,dose 25 mg,4.25 ng/mL
same,concentration at 4 h,dose 25 mg,1.18 ng/mL
same,concentration at 5 h,dose 25 mg,0.35 ng/mL
same,concentration at 6 h,dose 25 mg,0.53 ng/mL
same,concentration at 8 h,dose 25 mg,0.23 ng/mL
same,concentration at 24 h,dose 25 mg,0.01 ng/mL
same,concentration at 0.5 h,dose 50 mg,1.54 ng/mL
same,concentration at 1 h,dose 50 mg,2.86 ng/mL
same,concentration at 2 h,dose 50 mg,3.76 ng/mL
same,concentration at 4 h,dose 50 mg,2.88 ng/mL
same,concentration at 5 h,dose 50 mg,2.15 ng/mL
same,concentration at 6 h,dose 50 mg,1.07 ng/mL
same,concentration at 8 h,dose 50 mg,0.54 ng/mL
same,concentration at 24 h,dose 50 mg,0.07 ng/mL
same,concentration at 0.5 h,dose 100 mg,2.7 ng/mL
same,concentration at 1 h,dose 100 mg,3.09 ng/mL
same,concentration at 2 h,dose 100 mg,4.5 ng/mL
same,concentration at 4 h,dose 100 mg,5.22 ng/mL
same,concentration at 5 h,dose 100 mg,6.18 ng/mL
same,concentration at 6 h,dose 100 mg,3.57 ng/mL
same,concentration at 8 h,dose 100 mg,4.22 ng/mL
same,concentration at 24 h,dose 100 mg,0.02 ng/mL
same,concentration at 0.5 h,dose 250 mg,2.64 ng/mL
same,concentration at 1 h,dose 250 mg,5.55 ng/mL
same,concentration at 2 h,dose 250 mg,8.35 ng/mL
same,concentration at 4 h,dose 250 mg,10.3 ng/mL
same,concentration at 5 h,dose 250 mg,8.29 ng/mL
same,concentration at 6 h,dose 250 mg,9.8 ng/mL
same,concentration at 8 h,dose 250 mg,7.57 ng/mL
same,concentration at 24 h,dose 250 mg,0.08 ng/mL
